From the supplement of paper PMC13380429

Tests used:
Settings in all cases: 72 h
[1] = system: U2OS; assay: relative viability EC50 (midpoint between 100% and the lowest measured viability); higher = less toxic
[2] = system: Calu-3; assay: as above
[3] = system: Vero E6; assay: as above
[4] = system: Caco-2; assay: as above
[5] = system: HepG2; assay: as above
[6] = system: U2OS; assay: cell viability relative to DMSO; higher = less toxic
[7] = system: Calu-3; assay: as above
[8] = system: Vero E6; assay: as above
[9] = system: Caco-2; assay: as above
[10] = system: HepG2; assay: as above
[11] = system: U2OS; assay: drug sensitivity score (DSS) for viability; higher = more toxic; extreme values may be limits of the assay
[12] = system: Calu-3; assay: as above
[13] = system: Vero E6; assay: as above
[14] = system: Caco-2; assay: as above
[15] = system: HepG2; assay: as above

| SMILES | relative viability EC50 [1] [µM] | relative viability EC50 [2] [µM] | relative viability EC50 [3] [µM] | relative viability EC50 [4] [µM] | relative viability EC50 [5] [µM] | cell viability ([6]; 1 nM) [%] | cell viability ([6]; 10 nM) [%] | cell viability ([6]; 100 nM) [%] | cell viability ([6]; 1000 nM) [%] | cell viability ([6]; 10000 nM) [%] | cell viability ([7]; 1 nM) [%] | cell viability ([7]; 10 nM) [%] | cell viability ([7]; 100 nM) [%] | cell viability ([7]; 1000 nM) [%] | cell viability ([7]; 10000 nM) [%] | cell viability ([8]; 1 nM) [%] | cell viability ([8]; 10 nM) [%] | cell viability ([8]; 100 nM) [%] | cell viability ([8]; 1000 nM) [%] | cell viability ([8]; 10000 nM) [%] | cell viability ([9]; 1 nM) [%] | cell viability ([9]; 10 nM) [%] | cell viability ([9]; 100 nM) [%] | cell viability ([9]; 1000 nM) [%] | cell viability ([9]; 10000 nM) [%] | cell viability ([10]; 1 nM) [%] | cell viability ([10]; 10 nM) [%] | cell viability ([10]; 100 nM) [%] | cell viability ([10]; 1000 nM) [%] | cell viability ([10]; 10000 nM) [%] | drug sensitivity score [11] | drug sensitivity score [12] | drug sensitivity score [13] | drug sensitivity score [14] | drug sensitivity score [15] |
| --- | --- | --- | --- | --- | --- | --- | --- | --- | --- | --- | --- | --- | --- | --- | --- | --- | --- | --- | --- | --- | --- | --- | --- | --- | --- | --- | --- | --- | --- | --- | --- | --- | --- | --- | --- |
| CCC(CC)(NC(=O)C(C)C)C(=O)N[C@@H](CCCNC(=N)N)C(=O)NC1(C(=O)NC(c2ccc(F)cc2)c2ccc(F)cc2)CCCC1 [MM-102] | > 10 | > 10 | > 10 | > 10 | > 10 | 97.8 | 94.9 | 101 | 95.8 | 99.2 | 98.1 | 85.4 | 92.5 | 97.8 | 97.8 | 94.2 | 101 | 97.3 | 99.5 | 106 | 99 | 93.9 | 101 | 94.6 | 102 | 100 | 96.8 | 98.4 | 105 | 114 | 0 | 0 | 0 | 0 | 0 |
| CNC(=O)c1ccccc1Nc1nc(Nc2ccc(N3CCOCC3)cc2OC)ncc1Cl [NVP-TAE226] | 1.26 | 0.706 | 0.645 | 0.295 | 0.356 | 99.9 | 100 | 94.1 | 69 | 22 | 93.1 | 90.8 | 86.2 | 74.5 | 41.9 | 99.6 | 97.7 | 96.3 | 66.7 | 48.4 | 96 | 104 | 88.3 | 54.1 | 44.2 | 114 | 99.6 | 91.3 | 33.1 | 20.8 | 7.9 | 6.9 | 6.8 | 9.8 | 13.5 |
| N[C@H]1C[C@@H]1c1ccc(-c2cccc(O)c2)cc1 [OG-L002] | > 10 | > 10 | > 10 | > 10 | > 10 | 101 | 94.3 | 98.3 | 97.8 | 96.4 | 108 | 106 | 99.3 | 95.3 | 108 | 96 | 103 | 95.9 | 104 | 107 | 104 | 100 | 102 | 101 | 105 | 103 | 97.6 | 100 | 115 | 114 | 0 | 0 | 0 | 0 | 0 |
| CN1CCN(c2ccc(-c3cccc(CN4CCOCC4)c3)cc2NC(=O)c2c[nH]c(=O)cc2C(F)(F)F)CC1 [OICR-9429] | > 10 | > 10 | > 10 | > 10 | > 10 | 102 | 98.2 | 99.2 | 97.4 | 100 | 97 | 108 | 98 | 104 | 88.3 | 99.1 | 101 | 98 | 100 | 95.1 | 106 | 97.7 | 94.1 | 92 | 98.2 | 108 | 98.7 | 99.7 | 95.8 | 95 | 0 | 0 | 0 | 0 | 0 |
| Cc1csc(S(=O)(=O)N(CC(C)C)c2cc3c(cc2OCc2ccc(C(=O)O)cc2)CCC3)n1 [ONO-8130] | > 10 | > 10 | > 10 | > 10 | > 10 | 97.9 | 103 | 97.5 | 101 | 95.1 | 98.5 | 101 | 97.6 | 98.5 | 99.5 | 107 | 102 | 99.3 | 97 | 98.6 | 99 | 104 | 96.4 | 99.2 | 91.6 | 110 | 95.3 | 96.8 | 94.8 | 93.6 | 0 | 0 | 0 | 0 | 0 |
| C[C@]12C/C(=C/O)C(=O)C[C@@H]1CC[C@@H]1[C@@H]2CC[C@@]2(C)[C@H]1CC[C@]2(C)O [Oxymetholone] | > 10 | > 10 | > 10 | > 10 | > 10 | 102 | 97.8 | 99.6 | 97 | 98.1 | 117 | 97.6 | 97.3 | 102 | 101 | 97.4 | 101 | 106 | 104 | 96.3 | 100 | 87.8 | 102 | 90.4 | 96.1 | 101 | 108 | 96 | 111 | 96 | 0 | 0 | 0 | 0 | 0 |
| O[C@@H](Cc1ccncc1)C(Cl)(Cl)Cl [PETCM] | > 10 | > 10 | > 10 | > 10 | > 10 | 98.8 | 93.3 | 99.1 | 93.3 | 99.1 | 98.8 | 89.8 | 114 | 95.3 | 110 | 94.7 | 97.1 | 96 | 102 | 98.2 | 99.4 | 95.8 | 103 | 98.7 | 105 | 101 | 103 | 95.2 | 99.3 | 97.8 | 0 | 0 | 0 | 0 | 0 |
| COc1ccc(Cl)cc1NC(=O)Nc1cc(C)nc2ccccc12 [PQ-401] | > 10 | > 10 | > 10 | > 10 | > 10 | 98.2 | 98.5 | 100 | 101 | 86.1 | 106 | 93.4 | 107 | 94.9 | 100 | 96.4 | 95.3 | 92.8 | 96.4 | 90.8 | 93.8 | 97 | 108 | 97.6 | 77.8 | 99.1 | 106 | 92 | 103 | 80.3 | 0.1 | 0 | 0 | 1.1 | 0.4 |
| O=C(Nc1ccc(Cl)cc1)Nc1cccc(-c2cccc(N3CCCC3)n2)c1 [PSNCBAM-1] | > 10 | > 10 | > 10 | > 10 | > 10 | 98.8 | 102 | 96.6 | 98.7 | 102 | 102 | 98.9 | 95 | 97.9 | 104 | 108 | 96.7 | 102 | 105 | 91.8 | 98.3 | 91.9 | 96.2 | 93.7 | 99.4 | 101 | 110 | 102 | 102 | 99.1 | 0 | 0 | 0 | 0 | 0 |
| CC(C)N(CCCNC(=O)Nc1ccc(C(C)(C)C)cc1)C[C@H]1O[C@@H](n2cc(Br)c3c(N)ncnc32)[C@H](O)[C@@H]1O [SGC-0946] | > 10 | > 10 | > 10 | > 10 | > 10 | 92.3 | 102 | 99.7 | 112 | 107 | 96 | 106 | 93.9 | 101 | 95.2 | 94.4 | 95.7 | 93 | 97.6 | 110 | 91.2 | 98.7 | 101 | 103 | 101 | 92.1 | 96.6 | 106 | 104 | 96.6 | 0 | 0 | 0 | 0 | 0 |
| C[Se]C[C@H](N)C(=O)O [Se-methylselenocysteine] | > 10 | > 10 | > 10 | > 10 | > 10 | 92.4 | 102 | 95.5 | 99.7 | 97.7 | 108 | 113 | 98.1 | 109 | 96.4 | 104 | 100 | 99.2 | 102 | 101 | 94.3 | 99.1 | 97.2 | 102 | 91.4 | 101 | 101 | 104 | 93 | 108 | 0 | 0 | 0 | 0 | 0 |
| Clc1ccccc1C(c1ccccc1)(c1ccccc1)n1cccn1 [TRAM-34] | > 10 | > 10 | > 10 | > 10 | > 10 | 97.6 | 98.4 | 101 | 99.2 | 99 | 104 | 104 | 106 | 93.4 | 103 | 104 | 111 | 97.6 | 104 | 98.9 | 95.8 | 89 | 99 | 99 | 90.1 | 107 | 96.5 | 93.5 | 98.4 | 104 | 0 | 0 | 0 | 0 | 0 |
| N#CC(c1ccccc1)(c1ccccc1)c1ccccc1Cl [TRAM-39] | > 10 | > 10 | > 10 | > 10 | > 10 | 101 | 96.5 | 95.7 | 97.3 | 94.3 | 93.8 | 93 | 107 | 106 | 92.9 | 103 | 97.8 | 97.8 | 95.2 | 98.5 | 94.3 | 93.2 | 90.8 | 96.9 | 92.6 | 105 | 102 | 93.7 | 92.7 | 103 | 0 | 0 | 0 | 0 | 0 |
| CCOC(=O)c1ccc(-c2ccc(OC(=O)N(C)Cc3cccc(-c4ccncc4)c3)cc2)cc1 [WWL-113] | > 10 | > 10 | > 10 | > 10 | 3.7 | 104 | 97.3 | 98.9 | 95.9 | 97.8 | 108 | 93.6 | 108 | 99.1 | 106 | 94.7 | 98.4 | 92.5 | 99.6 | 91.4 | 97.4 | 102 | 105 | 96.5 | 92.8 | 100 | 106 | 96.5 | 107 | 38.1 | 0 | 0 | 0 | 0 | 2.9 |
